The results in this text go back to PMC7824209, “Bioactive Bis(indole) Alkaloids from a Spongosorites sp. Sponge” (Marine Drugs, 2020).

Experiment [1] relates to Klebsiella pneumoniae ATCC10031. Description: Antibacterial activity MIC. It counts as cell-based. As to conditions: Gram-negative, ATCC10031, read-out: Antibacterial Activity MIC, Klebsiella pneumonia.
The subject of experiment [2] is Trichophyton rubrum NBRC9185. Description: Antifungal activity MIC. It is filed as cell-based.
In a further experiment the test system is A549 cell line. Description: MTT cytotoxicity assay. It is filed as cell-based. As to conditions: Homo sapiens; MTT assay, A549; read-out: IC50 A549. How it is done: (§1) An MTT assay was performed as previously described to determine the cytotoxicity against A549 and K562 cell lines. These cancer cell lines were purchased from the Korean Cell Line Bank (KCLB), Seoul, Republic of Korea.
For orientation: Tetrazolium assays rely on reduction of a dye to a coloured formazan, in cell work by metabolically active cells.

The next experiment relates to K562 cell line. The experiment in a line: MTT cytotoxicity assay. It is filed as cell-based. The settings on record: Homo sapiens; MTT assay, K562; read-out: IC50 K562. How it is done: as §1
The test system of experiment [3] is Trichophyton mentagrophytes IFM40996. The experiment in a line: Antifungal activity MIC. It is filed as cell-based.
Experiment [4] has as its system Enterococcus faecium ATCC19434. Description: Antibacterial activity MIC. As to conditions: Gram-positive, ATCC19434, read-out: Antibacterial Activity MIC, Enterococcus faecium. It is filed as cell-based.
Experiment [5] relates to Aspergillus fumigatus HIC6094. The experiment in a line: Antifungal activity MIC. It counts as cell-based.
Experiment [6] has as its system Escherichia coli ATCC25922. Description: Antibacterial activity MIC. It counts as cell-based. The settings on record: Gram-negative; for MIC: Escherichia coli, read-out: Antibacterial Activity MIC, E. coli.
Experiment [7] relates to Enterococcus faecalis ATCC19433. The experiment in a line: Antibacterial activity MIC. It is filed as cell-based. The settings on record: Gram-positive, ATCC19433, read-out: Antibacterial Activity MIC, Enterococcus faecalis.
Experiment [8] concerns Candida albicans ATCC10231. The experiment in a line: Antifungal activity MIC. It counts as cell-based.
The target of experiment [9] is T1, recombinant SrtA from S. aureus ATCC6538p (Staphylococcus aureus, UniProt Q2FV99).
T1 construct: made in house; host or cells: Escherichia coli
Description: SrtA inhibition assay (fluorescence, dabcyl-LPETG-edans cleavage). It is filed as biochemical. From the text:
The same bioassays were pursued with the new compounds and the known congeners, with a particular emphasis on SrtA inhibition. The rationale of SrtA inhibition is that this transpeptidase decorates the surfaces of Gram-positive bacteria with a diverse array of proteins that enable microbes to effectively interact with their environment, and it is not required for bacterial growth or viability. It is thus considered a promising target for the development of anti-virulence drugs aimed at interfering with important virulence mechanisms such as adhesion to host tissues. To assess the SrtA inhibitory activity of compounds 1–14, recombinant SrtA derived from S. aureus ATCC6538p was purified from Escherichia coli extracts using metal chelate-affinity chromatography. The enzyme activity was determined from the fluorescence intensity upon cleavage of a peptide substrate containing the LPETG motif.
Before evaluating the SrtA inhibitory activity of the test compounds, recombinant SrtA from S. aureus ATCC6538p was prepared according to methods described in a previous paper. The SrtA inhibitory activity of the test compounds was determined according to previously described methods with minor modifications. The reaction was carried out with 100 μL buffer (50 mM Tris-HCl, 5 mM CaCl2, and 150 mM NaCl, pH 7.5), 7.5 µM synthetic peptide dabcyl-LPETG-edans (AnaSpec, Inc., Fremont, CA, USA), 7.5 µM purified SrtA, and test samples at various concentrations. […] The SrtA inhibition assay was conducted at 37 °C for 1 h, and inhibition was quantified fluorometrically using a microplate reader (FLx800, BioTek Instruments, Winooski, VT, USA) at excitation and emission wavelengths of 350 and 495 nm, respectively. Berberine chloride and triphasiol were used as reference inhibitors of SrtA.

The subject of another experiment is S. aureus strain Newman. Description: Antibacterial activity MIC. It is filed as cell-based. As to conditions: Staphylococcus aureus; Gram-positive; strain Newman; read-out: Antibacterial Activity MIC, S. aureus.
The subject of experiment [10] is Salmonella enterica ATCC14028. Description: Antibacterial activity MIC. The settings on record: Gram-negative, ATCC14028, read-out: Antibacterial Activity MIC, Salmonella enterica. It counts as cell-based.

Each structure is given as a SMILES string. ≈ marks a conversion by molar mass, not a printed value. Like-named read-outs stand apart in the source and are kept apart here.

T1 sequence (Q2FV99 whole entry): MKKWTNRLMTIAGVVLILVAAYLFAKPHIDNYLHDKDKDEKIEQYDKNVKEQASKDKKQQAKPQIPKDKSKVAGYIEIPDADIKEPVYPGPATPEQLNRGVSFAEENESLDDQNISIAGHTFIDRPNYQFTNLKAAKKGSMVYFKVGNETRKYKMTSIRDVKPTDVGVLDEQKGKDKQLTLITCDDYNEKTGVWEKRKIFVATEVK

Turning to `CN(C)[C@@H]1C(O)=C(C(N)=O)C(=O)[C@@]2(O)C(O)=C3C(=O)c4c(O)cccc4[C@@](C)(O)[C@H]3C[C@@H]12` [tetracycline, reference compound], the MIC (usually the smallest concentration in the dilution series that meets the test's criterion for growth inhibition) in [1] was 0.25 µg/mL (≈ 0.563 µM).

Regarding `O=C(c1nc(-c2c[nH]c3cc(Br)ccc23)c[nH]1)c1c[nH]c2cc(O)ccc12` [Compound 10, bromotopsentin], the minimum inhibitory concentration (MIC) in experiment [2] is above 128 µg/mL; in experiment [3], above 128 µg/mL; in experiment [1], 64 µg/mL (≈ 152 µM); in [4] it was 16 µg/mL (≈ 38 µM); in experiment [5], above 128 µg/mL; in experiment [6], above 128 µg/mL. The MIC is 32 µg/mL (≈ 76 µM) in [7], above 128 µg/mL in experiment [8], 8 µg/mL (≈ 19 µM) with S. aureus strain Newman and 16 µg/mL (≈ 38 µM) in [10]. In addition, the IC50 (usually the point on the concentration scale where inhibition reaches its midpoint) with A549 cell line is 38.9 µM; in the experiment with K562 cell line it was 43.2 µM; in [9] it was 53.2 µM. For the same compound, the “Antibacterial Activity MIC, E. coli” value in experiment [6] is above 128 µg/mL.

For the compound `CO[C@@]1(C(=O)c2c[nH]c3ccccc23)N=C(c2c[nH]c3ccccc23)C(=O)N1` [Compound 2, spongosoritin B], the MIC in experiment [2] was above 128 µg/mL; in [3], above 128 µg/mL; in experiment [1], 128 µg/mL (≈ 344 µM); in experiment [4] it was above 128 µg/mL; in experiment [5], above 128 µg/mL; in experiment [6] it was above 128 µg/mL. Further, the MIC in experiment [7] is above 128 µg/mL; in experiment [8], above 128 µg/mL; in the experiment with S. aureus strain Newman, 64 µg/mL (≈ 172 µM); in [10], 128 µg/mL (≈ 344 µM). Besides, the IC50 with A549 cell line was 55.7 µM; in the experiment with K562 cell line, 28.5 µM; in experiment [9] it was 62.7 µM.

Take `CO[C@@]1(C(=O)c2c[nH]c3cc(O)ccc23)N=C(c2c[nH]c3ccccc23)C(=O)N1` [Compound 1, spongosoritin A]: the MIC in [2], in experiment [3], in [1], in experiment [4], in experiment [5] and in experiment [6] was above 128 µg/mL each time. For the same compound, the MIC (in experiment [7]; in [8]; with S. aureus strain Newman; in [10]) was above 128 µg/mL in each case. The half-maximal inhibitory concentration (IC50) in the experiment on A549 cell line is 77.3 µM; with K562 cell line, 24.2 µM; in experiment [9], above 330 µM.

Turning to `COC(=O)c1c[nH]c2ccccc12` [Compound 13, 3-carbomethoxyindole], the MIC in experiment [2], in experiment [3], in experiment [1], in [4], in [5] and in [6] was above 128 µg/mL throughout. Also, the minimum inhibitory concentration (MIC) in experiment [7] is above 128 µg/mL; in [8], above 128 µg/mL; in the experiment with S. aureus strain Newman, 128 µg/mL (≈ 731 µM); in experiment [10], above 128 µg/mL. For the same compound, the half-maximal inhibitory concentration (IC50) with A549 cell line was 59.2 µM; in the experiment with K562 cell line, above 100 µM; in experiment [9], 164 µM.

For `O=C(c1nc(-c2c[nH]c3ccccc23)c[nH]1)c1c[nH]c2cc(O)ccc12` [Compound 7, topsentin], the MIC was above 128 µg/mL in [2]; above 128 µg/mL in experiment [3]; 64 µg/mL (≈ 187 µM) in experiment [1]; 64 µg/mL (≈ 187 µM) in experiment [4]; above 128 µg/mL in experiment [5]; above 128 µg/mL in [6]. Also, the minimal inhibitory concentration (MIC) in experiment [7] was 64 µg/mL (≈ 187 µM); in experiment [8], above 128 µg/mL; in the experiment with S. aureus strain Newman, 32 µg/mL (≈ 93.5 µM); in experiment [10], 64 µg/mL (≈ 187 µM). Further, the IC50 was 25.3 µM with A549 cell line, 15.3 µM in the experiment on K562 cell line and above 374 µM in experiment [9]. The “Antibacterial Activity MIC, E. coli” value in experiment [6] is above 128 µg/mL.

On to `O=C(NCC(=O)c1c[nH]c2ccccc12)NC(=O)c1c[nH]c2cc(O)ccc12` [Compound 5, spongocarbamide A], for which the MIC in [2], in [3], in experiment [1], in experiment [4], in experiment [5] and in experiment [6] was above 128 µg/mL in each case. Besides, the MIC (in experiment [7]; in experiment [8]; in the experiment on S. aureus strain Newman; in experiment [10]) was above 128 µg/mL throughout. Further, the 50% inhibitory concentration (IC50) was above 100 µM in the experiment with A549 cell line, 92.8 µM with K562 cell line and 79.4 µM in [9].

Take `COC(=O)c1c[nH]c2cc(O)ccc12` [Compound 14, 6-hydroxy-3-carbomethoxyindole]: the minimal inhibitory concentration (MIC) in experiment [2], in experiment [3], in [1], in experiment [4], in experiment [5] and in experiment [6] was above 128 µg/mL each time. For the same compound, the minimal inhibitory concentration (MIC) is above 128 µg/mL in experiment [7], above 128 µg/mL in [8], 128 µg/mL (≈ 670 µM) with S. aureus strain Newman and above 128 µg/mL in experiment [10]. Besides, the figures for the concentration for half-maximal inhibition (IC50) (in the experiment on A549 cell line; with K562 cell line; in experiment [9]) were 66.8 µM, above 100 µM and 191 µM, respectively.

Regarding `O=C1NC(c2c[nH]c3cc(Br)ccc23)CN=C1c1c[nH]c2ccccc12` (stereo in doubt) [Compound 11, (R)-6′′-debromohamacanthin A], the MIC was above 128 µg/mL in experiment [2]; above 128 µg/mL in experiment [3]; 8 µg/mL (≈ 19.6 µM) in experiment [1]; 32 µg/mL (≈ 78.6 µM) in experiment [4]; above 128 µg/mL in experiment [5]; above 128 µg/mL in experiment [6]. For the same compound, the MIC is 32 µg/mL (≈ 78.6 µM) in experiment [7], above 128 µg/mL in [8], 8 µg/mL (≈ 19.6 µM) with S. aureus strain Newman and 16 µg/mL (≈ 39.3 µM) in experiment [10]. Further, the IC50 with A549 cell line is 39.6 µM; in the experiment with K562 cell line, above 100 µM; in [9], 47.5 µM. Besides, the “Antibacterial Activity MIC, E. coli” value in experiment [6] was above 128 µg/mL.

Regarding `O=C(c1ncc(-c2c[nH]c3cc(Br)ccc23)[nH]1)c1c[nH]c2ccccc12` [Compound 9, bromodeoxytopsentin], in experiment [9], the 50% inhibitory concentration (IC50) was 34 µM.

For `CC1(C)S[C@@H]2[C@H](NC(=O)[C@H](N)c3ccccc3)C(=O)N2[C@H]1C(=O)O` [ampicillin, reference compound], the MIC was 1 µg/mL (≈ 2.86 µM) in experiment [4]; 8 µg/mL (≈ 22.9 µM) in experiment [6]; 0.5 µg/mL (≈ 1.43 µM) in experiment [7]; 0.13 µg/mL (≈ 0.372 µM) with S. aureus strain Newman; 0.25 µg/mL (≈ 0.715 µM) in [10].

Turning to `CC(C)C(=O)Cc1c(OCC(O)C(C)(C)O)ccc2ccc(=O)oc12` (stereo not drawn) [triphasiol, reference compound], the IC50 in [9] (7.5 µM SrtA, 7.5 µM dabcyl-LPETG-edans, 37 °C, 1 h, pH 7.5, read-out: IC50 Srt A) was determined as 37.9 µM.

`COc1ccc2cc3[n+](cc2c1OC)CCc1cc2c(cc1-3)OCO2` [berberine chloride, reference compound]: the IC50 in [9] is 87.4 µM.

Consider `CO[C@@]1(C(=O)c2c[nH]c3ccccc23)N=C(c2c[nH]c3cc(Br)ccc23)C(=O)N1` [Compound 3, spongosoritin C], for which the MIC in experiment [2], in experiment [3], in experiment [1], in experiment [4], in [5] and in experiment [6] was above 128 µg/mL throughout. For the same compound, the MIC was 128 µg/mL (≈ 284 µM) in [7], above 128 µg/mL in [8], 32 µg/mL (≈ 70.9 µM) with S. aureus strain Newman and 64 µg/mL (≈ 142 µM) in [10]. Also, the IC50 in the experiment with A549 cell line turned out to be 61.2 µM; in the experiment with K562 cell line it was 37.7 µM; in [9] it was 43.9 µM.

For the compound `COc1cccc2c1C(=O)c1c(O)c3c(c(O)c1C2=O)C[C@@](O)(C(=O)CO)C[C@@H]3O[C@H]1C[C@H](N)[C@H](O)[C@H](C)O1` [doxorubicin, reference compound], the IC50 with A549 cell line worked out at 0.64 µM; in the experiment on K562 cell line it was 0.92 µM.

As for `O=C(c1ncc(-c2c[nH]c3ccccc23)[nH]1)c1c[nH]c2cc(Br)ccc12` [Compound 8, isobromodeoxytopsentin], in experiment [9], the IC50 turned out to be 41.3 µM.
